Results: PubChem BioAssay (NCI)
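96-well plates; 48 h exposure; 5 concentrations. Endpoints by linear interpolation between flanking doses. Not reached: highest tested concentration assigned. Definition used: TGI = concentration required for complete inhibition of growth.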 Where a SMILES comes first, the peptide text is derived from it. The star is where a group is joined. Boc = CC(C)(C)OC(=O)*; OBn = c1ccc(CO*)cc1

Columns and labels:
Test in all cases: NCI anticancer screen, dose series, 48 h
[1] = test system: ACHN renal
[2] = test system: COLO 205 colon
[3] = test system: DU-145 prostate
[4] = test system: EKVX NSCLC
[5] = test system: HCC-2998 colon
[6] = test system: HL-60(TB) leukemia
[7] = test system: HOP-92 NSCLC
[8] = test system: IGROV1 ovarian
[9] = test system: KM12 colon
[10] = test system: M14 melanoma
[11] = test system: OVCAR-8 ovarian
[12] = test system: RPMI-8226 leukemia
[13] = test system: RXF 393 renal
[14] = test system: SF-268 CNS
[15] = test system: SK-OV-3 ovarian
[16] = test system: SN12C renal
[17] = test system: SW-620 colon
[18] = test system: TK-10 renal
[19] = test system: BT-549 breast

For `CN(C)C=Nc1c(Br)cc(Br)c2nonc12`, the TGI [1] was > 100 µM, the TGI [2] was > 100 µM and the TGI [3] was > 100 µM. The TGI [4] was > 100 µM, the TGI [5] was > 100 µM and the TGI [6] was > 100 µM. For the same molecule, the TGI [7] was > 100 µM, the TGI [8] was > 100 µM and the TGI [9] was > 100 µM. The TGI [10] was > 100 µM, the TGI [11] was > 100 µM and the TGI [12] was > 100 µM. For the same molecule, the TGI [13] was > 100 µM, the TGI [14] was > 100 µM and the TGI [15] was > 100 µM. For the same molecule, the TGI [16] was > 100 µM, the TGI [17] was > 100 µM and the TGI [18] was > 100 µM.
`CC(=O)[C@]1(C)[C@H](C)O[C@](C)(CO)[C@H]1O[Si](C)(C)c1ccccc1` was tested, and the TGI [1] was > 100 µM, the TGI [2] was > 100 µM and the TGI [3] was > 100 µM. For the same molecule, the TGI [4] was > 100 µM, the TGI [5] was > 100 µM and the TGI [6] was 72.4 µM. The TGI [7] was > 100 µM, the TGI [8] was 41.4 µM and the TGI [9] was > 100 µM. The TGI [10] was > 100 µM, the TGI [11] was > 100 µM and the TGI [12] was > 100 µM. The TGI [13] was 46 µM, the TGI [14] was > 100 µM and the TGI [15] was > 100 µM. The TGI [16] was > 100 µM, the TGI [17] was > 100 µM and the TGI [18] was > 100 µM.
For `NC(N)=NCCCC(NCc1c2ccccc2[n+]([O-])c2ccccc12)C(=O)O` (configuration not stated), the TGI [1] was > 100 µM, the TGI [2] was > 100 µM and the TGI [4] was > 100 µM. For the same molecule, the TGI [5] was > 100 µM, the TGI [6] was 58.7 µM and the TGI [8] was > 100 µM. For the same molecule, the TGI [9] was > 100 µM, the TGI [10] was > 100 µM and the TGI [11] was > 100 µM. The TGI [12] was 96.2 µM, the TGI [14] was > 100 µM and the TGI [15] was > 100 µM. The TGI [16] was > 100 µM, the TGI [17] was > 100 µM and the TGI [18] was > 100 µM.
`CC(C)C(NC(=O)CNC(=O)C1CCCN1C(=O)C(NC(=O)OC(C)(C)C)C(C)C)C(=O)NCC(=O)OCc1ccccc1` (configuration not stated) (Boc-VPGVG-OBn; configuration not given here) was tested, and the TGI [1] was > 100 µM, the TGI [2] was > 100 µM and the TGI [3] was > 100 µM. The TGI [4] was > 100 µM, the TGI [5] was > 100 µM and the TGI [6] was > 100 µM. The TGI [7] was > 100 µM, the TGI [8] was > 100 µM and the TGI [9] was > 100 µM. The TGI [10] was > 100 µM, the TGI [11] was > 100 µM and the TGI [12] was > 100 µM. For the same molecule, the TGI [13] was > 100 µM, the TGI [14] was > 100 µM and the TGI [15] was > 100 µM. For the same molecule, the TGI [16] was > 100 µM, the TGI [17] was > 100 µM and the TGI [18] was > 100 µM.
`COC(=O)C1CCC[C@H]2C(CO)=C(C)C(=O)[C@@H]12` (some centres not stated) was tested, and the TGI [1] was > 100 µM, the TGI [2] was > 100 µM and the TGI [4] was > 100 µM. The TGI [5] was > 100 µM, the TGI [6] was > 100 µM and the TGI [7] was > 100 µM. For the same molecule, the TGI [8] was > 100 µM, the TGI [9] was > 100 µM and the TGI [10] was > 100 µM. For the same molecule, the TGI [11] was > 100 µM, the TGI [12] was > 100 µM and the TGI [13] was > 100 µM. The TGI [14] was > 100 µM, the TGI [15] was > 100 µM and the TGI [16] was > 100 µM. For the same molecule, the TGI [17] was > 100 µM and the TGI [18] was > 100 µM.
For `CCOc1ccc(N=Nc2c(-c3ccccc3)nn(C(=O)CC(=O)Nc3cccc(C)c3)c2-c2ccccc2)cc1`, the TGI [1] was > 100 µM, the TGI [2] was > 100 µM and the TGI [4] was > 100 µM. For the same molecule, the TGI [5] was > 100 µM, the TGI [6] was > 100 µM and the TGI [7] was > 100 µM. The TGI [8] was > 100 µM, the TGI [9] was > 100 µM and the TGI [10] was > 100 µM. The TGI [11] was > 100 µM, the TGI [12] was > 100 µM and the TGI [13] was > 100 µM. The TGI [14] was > 100 µM, the TGI [15] was > 100 µM and the TGI [16] was > 100 µM. The TGI [17] was > 100 µM and the TGI [18] was > 100 µM.
`Cc1ccc(Nc2cc(=O)[nH]c(=O)[nH]2)cc1CS` was tested, and the TGI [1] was > 100 µM, the TGI [19] was > 100 µM and the TGI [2] was > 100 µM. The TGI [4] was > 100 µM, the TGI [5] was > 100 µM and the TGI [7] was > 100 µM. The TGI [8] was > 100 µM, the TGI [9] was > 100 µM and the TGI [10] was > 100 µM. The TGI [11] was > 100 µM, the TGI [12] was > 100 µM and the TGI [13] was > 100 µM. For the same molecule, the TGI [14] was > 100 µM, the TGI [15] was > 100 µM and the TGI [16] was > 100 µM. The TGI [17] was > 100 µM and the TGI [18] was > 100 µM.
`O=C1NCC2(CCNCC2)N1` was tested, and the TGI [1] was > 100 µM, the TGI [2] was > 100 µM and the TGI [3] was > 100 µM. The TGI [4] was > 100 µM, the TGI [5] was > 100 µM and the TGI [6] was > 100 µM. The TGI [7] was > 100 µM, the TGI [8] was > 100 µM and the TGI [9] was > 100 µM. The TGI [10] was > 100 µM, the TGI [11] was > 100 µM and the TGI [12] was > 100 µM. The TGI [13] was > 100 µM, the TGI [14] was > 100 µM and the TGI [15] was > 100 µM. The TGI [16] was > 100 µM, the TGI [17] was > 100 µM and the TGI [18] was > 100 µM.
For `COc1cc2c(cc1OC)C1(c3ccccc3)ON=C(c3ccccc3)N1CS2` (configuration not stated), the TGI [1] was > 100 µM, the TGI [2] was > 100 µM and the TGI [4] was > 100 µM. The TGI [5] was > 100 µM, the TGI [6] was > 100 µM and the TGI [7] was > 100 µM. The TGI [8] was > 100 µM, the TGI [9] was > 100 µM and the TGI [10] was > 100 µM. For the same molecule, the TGI [12] was > 100 µM, the TGI [13] was > 100 µM and the TGI [14] was > 100 µM. The TGI [15] was > 100 µM, the TGI [16] was > 100 µM and the TGI [17] was > 100 µM. For the same molecule, the TGI [18] was > 100 µM.
`CCCCCCCSCC1OC(n2cnc3c(N)ncnc32)C(O)C1O` (configuration not stated) was tested, and the TGI [1] was > 100 µM, the TGI [2] was 28.3 µM and the TGI [4] was 56.2 µM. The TGI [5] was 66.9 µM, the TGI [6] was 27.3 µM and the TGI [7] was 58 µM. It also gave a TGI [8] of 41.8 µM, a TGI [10] of 48.5 µM and a TGI [11] of 54.1 µM. The TGI [12] was 69 µM, the TGI [13] was > 100 µM and the TGI [14] was > 100 µM. For the same molecule, the TGI [16] was 65.4 µM, the TGI [17] was 46.5 µM and the TGI [18] was > 100 µM.
With `N#Cc1nc(C2SCCCS2)oc1N` the TGI [1] was > 100 µM, the TGI [3] was > 100 µM and the TGI [4] was > 100 µM. The TGI [6] was > 100 µM, the TGI [7] was > 100 µM and the TGI [8] was > 100 µM. The TGI [9] was > 100 µM, the TGI [10] was > 100 µM and the TGI [11] was > 100 µM. For the same molecule, the TGI [12] was > 100 µM, the TGI [14] was > 100 µM and the TGI [15] was > 100 µM. For the same molecule, the TGI [16] was > 100 µM, the TGI [17] was > 100 µM and the TGI [18] was > 100 µM.
With `COC1CC(n2ccc(=O)[nH]c2=O)OC1CO` (configuration not stated) the TGI [1] was > 100 µM, the TGI [2] was > 100 µM and the TGI [3] was > 100 µM. The TGI [4] was > 100 µM, the TGI [5] was > 100 µM and the TGI [7] was > 100 µM. For the same molecule, the TGI [8] was > 100 µM, the TGI [9] was > 100 µM and the TGI [10] was > 100 µM. The TGI [11] was > 100 µM, the TGI [13] was > 100 µM and the TGI [14] was > 100 µM. For the same molecule, the TGI [15] was > 100 µM, the TGI [16] was > 100 µM and the TGI [17] was > 100 µM.
In the case of `CCOC(=O)NC(C(C(=O)OCC)C(=O)OCC)(C(F)(F)F)C(F)(F)F`, the TGI [1] was > 100 µM, the TGI [2] was > 100 µM and the TGI [3] was > 100 µM. The TGI [4] was > 100 µM, the TGI [6] was > 100 µM and the TGI [7] was > 100 µM. For the same molecule, the TGI [8] was > 100 µM, the TGI [9] was > 100 µM and the TGI [10] was > 100 µM. The TGI [11] was > 100 µM, the TGI [12] was > 100 µM and the TGI [13] was > 100 µM. For the same molecule, the TGI [14] was > 100 µM, the TGI [16] was > 100 µM and the TGI [17] was > 100 µM. For the same molecule, the TGI [18] was > 100 µM.
For `CC1C(=O)CC[C@@]2(C)C(=O)CCCC12O` (some centres not stated), the TGI [1] was > 100 µM, the TGI [2] was > 100 µM and the TGI [3] was > 100 µM. For the same molecule, the TGI [4] was > 100 µM, the TGI [5] was > 100 µM and the TGI [6] was > 100 µM. For the same molecule, the TGI [7] was > 100 µM, the TGI [8] was > 100 µM and the TGI [9] was > 100 µM. For the same molecule, the TGI [10] was > 100 µM, the TGI [12] was > 100 µM and the TGI [13] was > 100 µM. For the same molecule, the TGI [14] was > 100 µM, the TGI [15] was > 100 µM and the TGI [16] was > 100 µM. For the same molecule, the TGI [17] was > 100 µM and the TGI [18] was > 100 µM.
